Laboratory results from article PMC9094411 (2022).

System: E. coli SugE guanidine-II riboswitch aptamer, 47mer FRET construct (C1G) (RNA, riboswitch, 5-aminoallyl-uridine at 3 (dye conjugated)) GUUUGCAGGACGACCUGCAAACGCCUCUUUUCACCGGGGACGGCCCC
Test: smFRET histograms, immobilised RNA (kissing-loop state population)
Details: Mg2+ 1 mM, 50 mM Tris/Cl pH 7.4, 22 °C, imaging buffer, 30 nM-30 mM ligand

binding (K-state 66% at 30 mM buffer, highest tested 30 mM, no K-state shift, RNA destabilised (U-state 35%)) | binding (K-state 66% at 30 mM) | Compound
no |  | NC(N)=O
 | yes | N=C(N)N
